Measurements from patent US11566007B2, “Ras inhibitors” (Revolution Medicines, Inc., priority 2019, dated 2023).

How the values were obtained:
[1] = biological target: KRAS G12V (Homo sapiens (Human), UniProt P01116+P62937, G12V); test: Ras-Raf (BRAF RBD) disruption / FRET / MOA assay, KRAS G12V; assay type: biochemical; settings: read-out: IC50* KRAS G12V FRET data
Summary of the method: (§1)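 Ras:RAF disruption was scored as a fall in TR-FRET ratio relative to DMSO. Compound ranged in 3-fold steps over 10 points from 30 μM final; incubation ran 3 h at 25° C, detection antibodies a further 1.5 h. Reported as IC50.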

[2] = biological target: KRAS G13D (Homo sapiens (Human), UniProt P01116+P62937, G13D); test: Ras-Raf (BRAF RBD) disruption / FRET / MOA assay, KRAS G13D; assay type: biochemical; settings: read-out: IC50* KRAS G13D FRET data
Sequence of KRAS G13D (P01116-2 other isoform, or with tags, fused parts or gaps G13D): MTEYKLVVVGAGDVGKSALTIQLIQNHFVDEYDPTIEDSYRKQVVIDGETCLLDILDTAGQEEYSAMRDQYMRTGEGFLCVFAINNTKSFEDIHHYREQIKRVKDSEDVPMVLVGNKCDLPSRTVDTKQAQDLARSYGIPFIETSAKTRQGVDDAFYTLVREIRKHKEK
Sequence of KRAS G13D (P62937 whole entry): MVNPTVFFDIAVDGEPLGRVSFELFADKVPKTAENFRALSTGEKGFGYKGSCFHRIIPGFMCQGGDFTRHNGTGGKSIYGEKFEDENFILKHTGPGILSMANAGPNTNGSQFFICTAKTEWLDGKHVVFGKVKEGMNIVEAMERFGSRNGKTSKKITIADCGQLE
Summary of the method: as §1

[3] = biological target: K-Ras G13C (Homo sapiens (Human), UniProt P01116+P62937, G13C); test: Ras-Raf (BRAF RBD) disruption / FRET / MOA assay, KRAS G13C; assay type: biochemical; settings: KRAS G13C; Ras-Raf disruption/FRET/MOA assay; read-out: IC50* KRAS G13C FRET data
Sequence of K-Ras G13C (P01116-2 other isoform, or with tags, fused parts or gaps G13C): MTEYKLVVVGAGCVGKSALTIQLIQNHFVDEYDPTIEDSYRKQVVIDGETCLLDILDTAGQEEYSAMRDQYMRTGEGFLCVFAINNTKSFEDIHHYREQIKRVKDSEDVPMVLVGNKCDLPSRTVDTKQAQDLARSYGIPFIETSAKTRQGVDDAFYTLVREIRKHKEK
Sequence of K-Ras G13C (P62937 whole entry): as the sequence (P62937 whole entry) above
Summary of the method: as §1

[4] = system: NCI-H358 (K-Ras G12C); test: CellTiter-Glo cell viability assay, NCI-H358; assay type: cell-based, human; settings: Homo sapiens, NCI-H358, 120 h, NCI-H358, 5-day treatment; class symbols; read-out: Additional H358 Cell Viability assay data (K-Ras G12C, IC50)
Summary of the method: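 Viability measured by CellTiter-Glo luminescence on day 5 following direct addition of compound to plated cells. Values expressed as percent of mean DMSO signal; curves fitted with a four-parameter logistic model.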

[5] = biological target: KRAS WT (Homo sapiens (Human), UniProt P01116+P62937); test: Ras-Raf (BRAF RBD) disruption / FRET / MOA assay, KRAS WT; assay type: biochemical; settings: read-out: IC50* KRAS WT FRET data
Sequence of KRAS WT (P01116-2 other isoform, or with tags, fused parts or gaps): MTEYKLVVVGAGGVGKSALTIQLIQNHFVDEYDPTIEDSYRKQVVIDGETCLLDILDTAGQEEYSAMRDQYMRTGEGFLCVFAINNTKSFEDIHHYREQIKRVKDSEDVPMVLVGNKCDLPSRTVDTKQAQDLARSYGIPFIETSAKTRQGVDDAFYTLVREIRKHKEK
Sequence of KRAS WT (P62937 whole entry): as the sequence (P62937 whole entry) above
Summary of the method: as §1

[6] = biological target: NRAS G12C (Homo sapiens (Human), UniProt P01111+P62937, G12C); test: Ras-Raf (BRAF RBD) disruption / FRET / MOA assay, NRAS G12C; assay type: biochemical; settings: read-out: IC50* NRAS G12C FRET data
Sequence of NRAS G12C (P01111 whole entry G12C): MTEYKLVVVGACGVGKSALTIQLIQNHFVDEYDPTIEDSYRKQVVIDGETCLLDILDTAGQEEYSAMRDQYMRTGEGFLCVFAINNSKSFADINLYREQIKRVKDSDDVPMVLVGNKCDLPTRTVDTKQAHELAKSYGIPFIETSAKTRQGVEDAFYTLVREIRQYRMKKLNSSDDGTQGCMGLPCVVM
Sequence of NRAS G12C (P62937 whole entry): as the sequence (P62937 whole entry) above
Summary of the method: as §1

[7] = biological target: KRAS G12S (Homo sapiens (Human), UniProt P01116+P62937, G12S); test: Ras-Raf (BRAF RBD) disruption / FRET / MOA assay, KRAS G12S; assay type: biochemical; settings: Ras-Raf disruption/FRET/MOA assay; class symbols; read-out: KRAS G12S FRET data IC50
Sequence of KRAS G12S (P01116-2 other isoform, or with tags, fused parts or gaps G12S): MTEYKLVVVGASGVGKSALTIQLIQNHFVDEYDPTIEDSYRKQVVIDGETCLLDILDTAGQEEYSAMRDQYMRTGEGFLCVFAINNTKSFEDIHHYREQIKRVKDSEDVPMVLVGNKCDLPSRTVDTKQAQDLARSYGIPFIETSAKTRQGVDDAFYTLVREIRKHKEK
Sequence of KRAS G12S (P62937 whole entry): as the sequence (P62937 whole entry) above
Summary of the method: as §1

[8] = biological target: KRAS Q61H (Homo sapiens (Human), UniProt P01116+P62937, Q61H); test: Ras-Raf (BRAF RBD) disruption / FRET / MOA assay, KRAS Q61H; assay type: biochemical; settings: Ras-Raf disruption/FRET/MOA assay; class symbols; read-out: KRAS Q61H FRET data IC50
Sequence of KRAS Q61H (P01116-2 other isoform, or with tags, fused parts or gaps Q61H): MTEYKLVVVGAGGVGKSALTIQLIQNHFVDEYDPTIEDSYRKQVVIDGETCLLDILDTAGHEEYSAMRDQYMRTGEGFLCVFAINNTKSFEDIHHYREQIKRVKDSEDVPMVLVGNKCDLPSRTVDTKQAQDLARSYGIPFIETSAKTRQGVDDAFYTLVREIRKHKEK
Sequence of KRAS Q61H (P62937 whole entry): as the sequence (P62937 whole entry) above
Summary of the method: (§2)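 TR-FRET disruption of nucleotide-loaded Ras binding to BRAF RBD via compound-driven ternary complex with cyclophilin A. Compound as 10-point 3-fold series from 30 μM final, 3 h at 25° C, then anti-His Eu-W1024 (10 nM) and anti-GST allophycocyanin (50 nM) for 1.5 h. IC50 from decreased FRET ratio versus DMSO.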

[9] = biological target: K-Ras G12C (Homo sapiens (Human), UniProt P01116+P62937, G12C); test: Ras-Raf (BRAF RBD) disruption / FRET / MOA assay, KRAS G12C; assay type: biochemical; settings: KRAS G12C; Ras-Raf disruption/FRET/MOA assay; read-out: IC50* KRAS G12C FRET data
Sequence of K-Ras G12C (P01116-2 other isoform, or with tags, fused parts or gaps G12C): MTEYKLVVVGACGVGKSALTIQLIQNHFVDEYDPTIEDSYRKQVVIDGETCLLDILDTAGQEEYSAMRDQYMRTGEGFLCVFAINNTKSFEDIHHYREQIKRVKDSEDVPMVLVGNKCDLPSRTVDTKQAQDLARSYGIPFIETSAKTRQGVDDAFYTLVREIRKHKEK
Sequence of K-Ras G12C (P62937 whole entry): as the sequence (P62937 whole entry) above
Summary of the method: as §1

[10] = biological target: NRAS Q61R (Homo sapiens (Human), UniProt P01111+P62937, Q61R); test: Ras-Raf (BRAF RBD) disruption / FRET / MOA assay, NRAS Q61R; assay type: biochemical; settings: NRAS Q61R; Ras-Raf disruption/FRET/MOA assay; read-out: IC50* NRAS Q61R FRET data
Sequence of NRAS Q61R (P01111 whole entry Q61R): as the sequence (P01111 whole entry G12C) above, with C12G, Q61R counted along it
Sequence of NRAS Q61R (P62937 whole entry): as the sequence (P62937 whole entry) above
Summary of the method: as §2

[11] = biological target: NRAS WT (Homo sapiens (Human), UniProt P01111+P62937); test: Ras-Raf (BRAF RBD) disruption / FRET / MOA assay, NRAS WT; assay type: biochemical; settings: read-out: IC50* NRAS WT FRET data
Sequence of NRAS WT (P01111 whole entry): as the sequence (P01111 whole entry G12C) above, with C12G counted along it
Sequence of NRAS WT (P62937 whole entry): as the sequence (P62937 whole entry) above
Summary of the method: as §2

[12] = biological target: KRAS G12D (Homo sapiens (Human), UniProt P01116+P62937, G12D); test: Ras-Raf (BRAF RBD) disruption / FRET / MOA assay, KRAS G12D; assay type: biochemical; settings: Ras-Raf disruption/FRET/MOA assay; class symbols; read-out: KRAS G12D FRET data IC50
Sequence of KRAS G12D (P01116-2 other isoform, or with tags, fused parts or gaps G12D): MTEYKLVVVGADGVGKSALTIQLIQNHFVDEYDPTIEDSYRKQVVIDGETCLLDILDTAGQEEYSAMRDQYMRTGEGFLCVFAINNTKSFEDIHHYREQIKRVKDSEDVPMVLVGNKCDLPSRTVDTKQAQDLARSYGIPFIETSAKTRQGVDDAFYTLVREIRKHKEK
Sequence of KRAS G12D (P62937 whole entry): as the sequence (P62937 whole entry) above
Summary of the method: as §1

Sequence of KRAS G12V (P01116-2 other isoform, or with tags, fused parts or gaps G12V): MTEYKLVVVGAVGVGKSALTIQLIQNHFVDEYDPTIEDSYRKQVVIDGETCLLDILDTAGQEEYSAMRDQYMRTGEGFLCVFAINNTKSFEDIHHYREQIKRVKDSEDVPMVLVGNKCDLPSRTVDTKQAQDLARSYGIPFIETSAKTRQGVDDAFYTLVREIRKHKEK
Sequence of KRAS G12V (P62937 whole entry): as the sequence (P62937 whole entry) above

SMILES	IC50 [1]	IC50 [2]	IC50 [3]	IC50 [4]	IC50 [5]	IC50 [6]	IC50 [7]	IC50 [8]	IC50 [9]	IC50 [10]	IC50 [11]	IC50 [12]
C=CC(=O)N1CC[C@@]2(COCCN2C(=O)N(C)[C@H](C(=O)N[C@H]2Cc3nc(cs3)-c3ccc4c(c3)c(c(-c3cccnc3[C@H](C)OC)n4CC)CC(C)(C)COC(=O)[C@@H]3CCCN(N3)C2=O)C(C)C)C1 (atropisomer, axis not shown) [Example A677]	1000 to 10000 nM	1000 to 10000 nM	1000 to 10000 nM	< 10 nM	100 to 1000 nM	100 to 1000 nM	100 to 1000 nM	100 to 1000 nM	100 to 1000 nM	100 to 1000 nM	100 to 1000 nM	1000 to 10000 nM
C=CC(=O)N1CCC2(CC1)CCN2C(=O)N(C)[C@H](C(=O)N[C@H]1Cc2nc(cs2)-c2ccc3c(c2)c(c(-c2cccnc2[C@H](C)OC)n3CC)CC(C)(C)COC(=O)[C@@H]2CCCN(N2)C1=O)C(C)C (atropisomer, axis not shown) [Example A678]	100 to 1000 nM	100 to 1000 nM	100 to 1000 nM	10 to 100 nM	100 to 1000 nM	10 to 100 nM	100 to 1000 nM	10 to 100 nM	10 to 100 nM	10 to 100 nM	100 to 1000 nM	100 to 1000 nM
CCn1c(-c2cccnc2[C@H](C)OC)c2c3cc(ccc31)-c1csc(n1)C[C@H](NC(=O)[C@H](C(C)C)N(C)C(=O)N1CCC3(CC1)CN(C(=O)/C=C/C(F)F)C3)C(=O)N1CCC[C@H](N1)C(=O)OCC(C)(C)C2 (atropisomer, axis not shown) [Example A683]	100 to 1000 nM	100 to 1000 nM	< 10 nM	10 to 100 nM	100 to 1000 nM	10 to 100 nM	100 to 1000 nM	10 to 100 nM	10 to 100 nM	100 to 1000 nM	100 to 1000 nM	100 to 1000 nM
